Results reported in PubChem BioAssay (NCI).
“And” between values parts separate entries of the source, which are not always exact repeats. Equal values may be shown once.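 Cells were grown in 96-well plates and exposed to each compound for 48 hours at five concentrations; endpoints were interpolated linearly between bracketing concentrations, or set to the highest concentration if not reached. GI50 is the concentration that inhibits growth by half. TGI marks complete inhibition of growth.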

Experiments:
Experiment in all cases: NCI-60 cell line screen, 48 h
HS 578T breast = tested on: HS 578T breast
CCRF-CEM leukemia = tested on: CCRF-CEM leukemia
SR leukemia = tested on: SR leukemia
NCI-H522 lung = tested on: NCI-H522 lung
ACHN renal = tested on: ACHN renal
HOP-62 NSCLC = tested on: HOP-62 NSCLC
SW-620 colon = tested on: SW-620 colon
SK-OV-3 ovarian = tested on: SK-OV-3 ovarian
SK-MEL-28 melanoma = tested on: SK-MEL-28 melanoma
UO-31 renal = tested on: UO-31 renal

| SMILES | TGI (HS 578T breast) | TGI (CCRF-CEM leukemia) | TGI (SR leukemia) | TGI (NCI-H522 lung) | TGI (ACHN renal) | TGI (HOP-62 NSCLC) | TGI (SW-620 colon) | TGI (SK-OV-3 ovarian) | TGI (SK-MEL-28 melanoma) | TGI (UO-31 renal) | GI50 (HS 578T breast) | GI50 (CCRF-CEM leukemia) | GI50 (SR leukemia) | GI50 (NCI-H522 lung) | GI50 (ACHN renal) | GI50 (HOP-62 NSCLC) | GI50 (SW-620 colon) | GI50 (SK-OV-3 ovarian) | GI50 (SK-MEL-28 melanoma) | GI50 (UO-31 renal) |
| --- | --- | --- | --- | --- | --- | --- | --- | --- | --- | --- | --- | --- | --- | --- | --- | --- | --- | --- | --- | --- |
| CNC1C(O)C(OC2C(N)CC(N)C(OC3OC(CN)=CCC3N)C2O)OCC1(C)O (stereo unspecified) | > 100 µM | > 100 µM | > 100 µM | > 100 µM | > 100 µM | > 100 µM | > 100 µM | > 100 µM | > 100 µM | > 100 µM | – | – | – | – | – | – | – | – | – | – |
| C=C(C)[C@@H]1CC[C@]2(C(N)=O)CC[C@]3(C)[C@H](CC[C@@H]4[C@@]5(C)CC[C@H](O)C(C)(C)[C@@H]5CC[C@]43C)[C@@H]12 | > 100 µM | > 100 µM | 23.5 µM | 16.3 µM | 6.82 µM | 12.8 µM | 26.1 µM | 29.8 µM | 42.3 µM | 3.34 µM | 5.74 µM | 4.49 µM | 4.14 µM | 3.13 µM | 2.44 µM | 3.21 µM | 3.88 µM | 8.18 µM | 10.9 µM | 1.72 µM |
| Cc1nc2ccccn2c1NC(=O)NNC(=S)Nc1ccc(Br)cc1 | > 100 µM | > 100 µM | 55.6 µM | 79.1 µM | > 100 µM | > 100 µM | > 100 µM | 82.8 µM | 94 µM | > 100 µM | 54.8 µM | 40.1 µM | 18.9 µM | 30.1 µM | 37.9 µM | 35.2 µM | 39.8 µM | 33 µM | 33 µM | 82.5 µM |
| CC(C)CC1C(=O)N2CCC[C@H]2C2(O)O[C@](NC(=O)C3C=C4c5cccc6[nH]c(Br)c(c56)C[C@H]4N(C)C3)(C(C)C)C(=O)N12 (stereo partly specified) | > 100 µM | > 100 µM | > 100 µM | – | > 100 µM | > 100 µM | > 100 µM | > 100 µM | > 100 µM | > 100 µM | 68.9 µM | 8.53 µM | 33.7 µM | – | 8.9 µM | – | 9.23 µM | 9.66 µM | – | 2.02 µM |
| C[C@H]1CC[C@H]([C@@H](C)[C@H]2[C@@H](O)C[C@H]3[C@@H]4CC[C@H]5C[C@@H](O)CC[C@]5(C)[C@H]4CC[C@]23C)NC1 | 57.7 µM | 29 µM | 24.7 µM | 30.8 µM | 53.7 µM | 58.1 µM | 41.9 µM | 31.7 µM | 36.1 µM | 30.9 µM | – | – | – | – | – | – | – | – | – | – |
| C=CC(=O)N1C/C(=C\c2ccccc2)C(=O)/C(=C/c2ccccc2)C1 | 14.8 µM | 3.55 µM | 0.935 µM and 5.24 µM | 3.49 µM | 4.53 µM | 6.28 µM | 0.831 µM | 7.58 µM | 3.78 µM | 3.43 µM | 2.22 µM | 0.927 µM | 0.566 µM | 0.348 µM | – | – | 0.534 µM | – | – | – |
| Nc1ccccc1SC(CC(=O)c1ccccc1)c1ccc([N+](=O)[O-])cc1 (stereo unspecified) | 47.6 µM | 46.7 µM | 7.38 µM | 27 µM | 24.2 µM | 28 µM | 10.9 µM | 31 µM | 27.6 µM | 21.5 µM | 18.1 µM | 13.7 µM | 2.57 µM | 12.9 µM | 11.8 µM | 14.5 µM | 2.88 µM | 17.3 µM | 14.4 µM | 7.75 µM |
| CCNCCC1(CC)C(=O)NC(=O)NC1=O | > 100 µM | > 100 µM | > 100 µM | > 100 µM | > 100 µM | > 100 µM | > 100 µM | > 100 µM | > 100 µM | > 100 µM | – | > 100 µM | – | – | – | – | – | – | – | – |
| C[C@@H](N)C1CCC(C(=O)Nc2ccncc2)CC1 (stereo partly specified) | > 100 µM | > 100 µM | > 100 µM | > 100 µM | > 100 µM | > 100 µM | > 100 µM | > 100 µM | > 100 µM | > 100 µM | 26.4 µM | 51.2 µM | 36.4 µM | > 100 µM | > 100 µM | > 100 µM | > 100 µM | > 100 µM | > 100 µM | > 34.1 µM |
| Cc1cc(C(=O)Nc2nc3cccc(Cl)c3n2[C@@H]2CCCCN(C(=O)/C=C/CN(C)C)C2)ccn1 | 37.3 µM | 56.2 µM | 35.5 µM | 14.4 µM | 16.3 µM | 27.4 µM | 31.5 µM | 9.03 µM | 27 µM | 20.3 µM | 9.11 µM | 12.5 µM | 11.3 µM | 0.108 µM | 0.406 µM | 12.5 µM | 14.6 µM | 0.0792 µM | 12.8 µM | 2.71 µM |
| COc1cc(-c2nc(NC(C)=O)sc2-c2ccnc(NCCNS(=O)(=O)c3ccccc3)n2)ccc1Cl | > 100 µM | > 100 µM | > 100 µM | 8.72 µM | > 100 µM | > 100 µM | > 100 µM | > 100 µM | > 100 µM | > 100 µM | 6.61 µM | 4.03 µM | 2.3 µM | 1.99 µM | 3.1 µM | 6.78 µM | 4.37 µM | 4.77 µM | 3.71 µM | 4.46 µM |
| O=C(c1ccc(OCCN2CCCCC2)cc1)c1c(-c2ccc(O)cc2)sc2cc(O)ccc12 | 22.8 µM and 47.8 µM | 43.9 µM and > 29.8 µM | – | 28.6 µM and 37.3 µM | 27.2 µM and 28.2 µM | 22.2 µM and 43.8 µM | 22 µM and 39.2 µM | 23.3 µM and 30.4 µM | 25.1 µM and 23.6 µM | 22.3 µM and 27.7 µM | 2.99 µM and 9.71 µM | 5.55 µM and 1.85 µM | 3.16 µM and 1.88 µM | 11 µM and 16.5 µM | 13.5 µM and 14.7 µM | 10.4 µM and 15.4 µM | 7.64 µM and 13.4 µM | 11.3 µM and 14.2 µM | 12.3 µM and 6.65 µM | 10.1 µM and 9.8 µM |
| COc1c2ccoc2cc2oc(=O)ccc12 | > 100 µM | > 100 µM | > 100 µM | > 100 µM | > 100 µM | > 100 µM | > 100 µM | – | > 100 µM | – | – | – | – | – | – | – | – | – | – | – |
| CCc1c2c(nc3cc4c(c(N)c13)OCO4)-c1cc3c(c(=O)n1C2)COC(=O)[C@]3(O)CC | > 100 µM | – | > 100 µM | 1.36 µM and 0.663 µM | 0.412 µM | – | > 100 µM | – | 5.44 µM and 32.4 µM | 0.153 µM | – | – | – | – | < 0.001 µM | < 0.001 µM | – | < 0.001 µM | 0.473 µM and 0.249 µM | 0.00128 µM |
| CCCCCCCCCCCCNC(=O)[C@H]1CSC(c2cc3ccccc3s2)N1 (stereo partly specified) | 1.86 µM | 1.68 µM | 1.85 µM | 11.1 µM | 9.29 µM | 1.55 µM | 7.93 µM | 8.38 µM | 1.39 µM | 8.37 µM | 0.777 µM | 0.725 µM | 0.695 µM | 5.11 µM | 4.9 µM | 0.732 µM | 2.3 µM | 4.16 µM | 0.644 µM | 4.16 µM |
